Test results: ChEMBL document CHEMBL6103620, “Gymnopeptides C and D, Highly N-Methylated Fungal Cyclopeptides” (J Nat Prod, 2025)
Activity calls are given as the source filed them. The calls are words filed in the database; no cut-off is given here. Square brackets hold non-standard residues; d marks the D form. Peptide text beside a SMILES is read from it. ξ: configuration not given here. Thr(3ξ) = CC(O)[C@H](N)C(=O)O; NMeV = CN[C@H](C(=O)O)C(C)C; NMeA = CN[C@@H](C)C(=O)O; Sar = CNCC(=O)O

What was measured:
HaCaT = assay: Antiproliferative activity against human HaCaT cells assessed as reduction in cell viability incubated for 72 hrs by MTT assay; format: functional, cell-based
A-375 [1] = assay: Inhibition of cell migration in human A-375 cells assessed as decrease in number of cell migration into lower compartment at 50 nM measured after 16 hrs; format: functional, cell-based
A-375 [2] = assay: Inhibition of cell migration in human A-375 cells assessed as reduction in cell numbers in wound area at 5 nM incubated for 72 hrs by methyl green staining based scratch assay; format: functional
A-375 [3] = assay: Induction of apoptosis in human A-375 cells assessed as increase in caspase-3 activity at 50 nM incubated for 24 hrs; format: functional, cell-based
A-375 [4] = assay: Antiproliferative activity against human A-375 cells assessed as reduction in cell viability incubated for 72 hrs by MTT assay; format: functional, cell-based

Structure (SMILES) | Activity (HaCaT) | inhibition (A-375 [1]) | inhibition (A-375 [2]) | Activity (A-375 [3]) | Activity (A-375 [4])
CC(C)[C@@H]1NC(=O)[C@H](C(C)C)N(C)C(=O)[C@H](C)NC(=O)[C@H]([C@H](C)O)N(C)C(=O)[C@H](C(C)C)NC(=O)[C@@H]2CCCN2C(=O)[C@H](C(C)C)NC(=O)[C@H](C)N(C)C(=O)[C@H](C(C)C)N(C)C(=O)CN(C)C(=O)[C@H](C)NC(=O)[C@H](C(C)C)N(C)C(=O)[C@H](C)NC(=O)[C@H](C(C)C)N(C)C(=O)[C@H](C(C)C)NC(=O)[C@H](C(C)C)N(C)C(=O)[C@H](C(C)C)NC(=O)[C@H](C(C)C)N(C)C1=O | Dose-dependent-effect | Active | Active; Significant Effect Observed | Active | Dose-dependent-effect
CC(C)[C@@H]1NC(=O)[C@H](C(C)C)N(C)C(=O)[C@H]([C@@H](C)O)NC(=O)[C@H](C(C)C)N(C)C(=O)[C@H](C(C)C)NC(=O)[C@H](C(C)C)N(C)C(=O)[C@H](C(C)C)NC(=O)[C@H](C(C)C)N(C)C(=O)[C@H](C(C)C)NC(=O)[C@H](C(C)C)N(C)C(=O)[C@H](C)NC(=O)[C@@H]([C@@H](C)O)N(C)C(=O)[C@H](C(C)C)NC(=O)[C@@H]2CCCN2C(=O)[C@H](C)NC(=O)[C@H](C)N(C)C(=O)[C@H](C(C)C)N(C)C(=O)CN(C)C1=O | Dose-dependent-effect | Active | Active; Significant Effect Observed | Active | Dose-dependent-effect
CC(C)[C@@H]1NC(=O)[C@H](C(C)C)N(C)C(=O)[C@H](C)NC(=O)[C@H](C(C)C)N(C)C(=O)[C@H](C(C)C)NC(=O)[C@H](C(C)C)N(C)C(=O)[C@H](C(C)C)NC(=O)[C@H](C(C)C)N(C)C(=O)[C@H](CO)NC(=O)[C@H](C(C)C)N(C)C(=O)[C@H](C)NC(=O)[C@H](C(C)C)N(C)C(=O)[C@H](C)NC(=O)CN(C)C(=O)[C@H](C(C)C)NC(=O)[C@H](C)N(C)C(=O)[C@H](C(C)C)N(C)C(=O)CN(C)C1=O (cyclo(A[NMeV]A[NMeV]S[NMeV]V[NMeV]V[NMeV]A[NMeV]V[Sar][NMeV][NMeA]V[Sar])) | Dose-dependent-effect | Active | Active; Significant Effect Observed | Active; Significant Effect Was Not Observed | Dose-dependent-effect
CC(C)[C@@H]1NC(=O)[C@H](C(C)C)N(C)C(=O)[C@H](C)NC(=O)[C@H](C(C)C)N(C)C(=O)[C@H](C(C)C)NC(=O)[C@H](C(C)C)N(C)C(=O)[C@H](C(C)C)NC(=O)[C@H](C(C)C)N(C)C(=O)[C@H](C(C)O)NC(=O)[C@H](C(C)C)N(C)C(=O)[C@H](C)NC(=O)[C@H](C(C)C)N(C)C(=O)[C@H](C)NC(=O)CN(C)C(=O)[C@H](C(C)C)NC(=O)[C@H](C)N(C)C(=O)[C@H](C(C)C)N(C)C(=O)CN(C)C1=O (stereo not given in full) (cyclo(A[NMeV]A[NMeV][Thr(3ξ)][NMeV]V[NMeV]V[NMeV]A[NMeV]V[Sar][NMeV][NMeA]V[Sar])) | Dose-dependent-effect | Active | Active; Significant Effect Observed | Active | Dose-dependent-effect
